According to patent US5436229A, “Bisulfite adducts of arginine aldehydes” (Eli Lilly and Company, priority 1994, dated 1995):
Non-standard residues stand in square brackets, D forms with d. Residues, ends and D or L forms follow the SMILES beside them. dNMeCha = CN[C@H](CC1CCCCC1)C(=O)O

Assays:
[1] = Epimerization inhibition by sodium bisulfite (compound of Example 80, Step F); type: physicochemical; conditions: pH 7.4, 50° C.
Experimental: A 55.55 mM aqueous sodium phosphate solution (adjusted pH 7.4 with sodium hydroxide) was mixed with a 27.77 mM sodium bisulfite/27.77 mM sodium phosphate solution (adjusted pH 7.4 with sodium hydroxide) and water in various ratios to produce buffers containing 0,5.55, 16.66 and 27.77 mM sodium bisulfite. A 0.9 ml aliquot of each sodium bisulfite/phosphate buffer was added to separate 13×100 mm culture tubes and placed in a 50° C. Isotherm Tempblok® heater for 15 minutes. To each culture tube 0.1 ml of a 1 mg/ml aqueous solution of D-3-Piq-Pro-Arg-H.H2 SO4 (Example 80, Step F) was added and mixed well. […] These samples were allowed to react for 15 minutes at 90° C. and were then evaporated to dryness with nitrogen in a 55° C. N-Evap. The residue was dissolved in 1 ml of methanol and transferred to Varian Si BondElut SPE columns (1 ml) previously conditioned with 1 ml of water then 1 ml of methanol. The dissolved samples were pulled through solwly with a slight vacuum, and the sorbent layer was then washed with 2-1 ml volumes of methanol. The SPE columns were then dried at full vacuum (~25 in. Hg) and the compounds of interest were eluted with 300 μl of acetonitrile/100 mM sodium dodecyl sulfate (adjusted to pH 3 with phosphoric acid) (7:3, v/v) into 12×75 mm culture tubes. These eluates were analyzed by the HPLC system described below.
The mobile phase was acetonitrile/180 mM sodium dodecyl sulfate (adjusted to pH 3 with phosphoric acid) (85:15, v/v) pumped at 0.5 ml/min with a Shimadzu LC-10AD pump. The column was an Inertsil ODS(2) 150×3.0 mm maintained at 40° C. with a Jones Chromatography 7960 column heater. Twenty-five microliter injections were made with a Waters WISP 712 autosampler. Detection was accomplished with a Kratos 783 UV detector at 360 nm. The percentage of the DLD isomer was calculated using the peak areas of the DLL and DLD isomers in the chromatograms and the following equation: [formula]

[2] = test system: human plasma; assay: Human plasma anticoagulation, activated partial thromboplastin time (APTT); type: biochemical
Procedure, shortened: (§1)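 Compounds added across a wide concentration range to human plasma; APTT, PT and TT clotting times measured on a coagulation instrument, bovine thrombin used for plasma assays. Concentration doubling clotting time estimated by linear extrapolation.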

[3] = test system: human plasma; assay: Human plasma anticoagulation, prothrombin time (PT); type: biochemical
Procedure, shortened: as §1

N=C(N)NCCCC(C=O)NC(=O)C1CCCN1C(=O)C1CC2CCCCC2CN1.O=S(=O)(O)O [80 (Step F), D-3-(cis)Piq-Pro-Arg-H.H2 SO4]
Percentage of DLD Isomer ([1]; sodium bisulfite 0 mM, 0 hr): 4.84% | Percentage of DLD Isomer ([1]; sodium bisulfite 0 mM, 0.5 hr): 46.00% | Percentage of DLD Isomer ([1]; sodium bisulfite 0 mM, 1 hr): 49.42% | Percentage of DLD Isomer ([1]; sodium bisulfite 0 mM, 2 hr): 49.53% | Percentage of DLD Isomer ([1]; sodium bisulfite 0 mM, 3 hr): 50.16% | Percentage of DLD Isomer ([1]; sodium bisulfite 0 mM, 4 hr): 50.36% | Percentage of DLD Isomer ([1]; sodium bisulfite 0 mM, 6 hr): 49.71% | Percentage of DLD Isomer ([1]; sodium bisulfite 0 mM, 8 hr): 49.92% | Percentage of DLD Isomer ([1]; sodium bisulfite 5 mM, 0 hr): 4.23% | Percentage of DLD Isomer ([1]; sodium bisulfite 5 mM, 0.5 hr): 43.52% | Percentage of DLD Isomer ([1]; sodium bisulfite 5 mM, 1 hr): 48.99% | Percentage of DLD Isomer ([1]; sodium bisulfite 5 mM, 2 hr): 47.98% | Percentage of DLD Isomer ([1]; sodium bisulfite 5 mM, 3 hr): 49.89% | Percentage of DLD Isomer ([1]; sodium bisulfite 5 mM, 4 hr): 49.90% | Percentage of DLD Isomer ([1]; sodium bisulfite 5 mM, 6 hr): 49.80% | Percentage of DLD Isomer ([1]; sodium bisulfite 5 mM, 8 hr): 50.08% | Percentage of DLD Isomer ([1]; sodium bisulfite 15 mM, 0 hr): 4.16% | Percentage of DLD Isomer ([1]; sodium bisulfite 15 mM, 0.5 hr): 27.80% | Percentage of DLD Isomer ([1]; sodium bisulfite 15 mM, 1 hr): 40.63% | Percentage of DLD Isomer ([1]; sodium bisulfite 15 mM, 2 hr): 45.06% | Percentage of DLD Isomer ([1]; sodium bisulfite 15 mM, 3 hr): 45.72% | Percentage of DLD Isomer ([1]; sodium bisulfite 15 mM, 4 hr): 49.24% | Percentage of DLD Isomer ([1]; sodium bisulfite 15 mM, 6 hr): 49.63% | Percentage of DLD Isomer ([1]; sodium bisulfite 15 mM, 8 hr): 49.99% | Percentage of DLD Isomer ([1]; sodium bisulfite 25 mM, 0 hr): 3.71% | Percentage of DLD Isomer ([1]; sodium bisulfite 25 mM, 0.5 hr): 4.56% | Percentage of DLD Isomer ([1]; sodium bisulfite 25 mM, 1 hr): 5.14% | Percentage of DLD Isomer ([1]; sodium bisulfite 25 mM, 2 hr): 5.31% | Percentage of DLD Isomer ([1]; sodium bisulfite 25 mM, 3 hr): 5.79% | Percentage of DLD Isomer ([1]; sodium bisulfite 25 mM, 4 hr): 6.06% | Percentage of DLD Isomer ([1]; sodium bisulfite 25 mM, 6 hr): 6.39% | Percentage of DLD Isomer ([1]; sodium bisulfite 25 mM, 8 hr): 6.72%

CN[C@H](CC1CCCCC1)C(=O)N1CCC[C@H]1C(=O)N[C@H](C=O)CCCNC(=N)N.Cl [Example 75, N-methyl-D-cyclohexylalanyl-L-Prolinyl-L-Arginine Aldehyde Hydrochloride] (H-[dNMeCha]-Pro-Arg-aldehyde)
2 × Clotting time APTT [2]: 420 ng/mL | 2 × Clotting time PT [3]: 720 ng/mL
